Experimental data from paper PMC6145916, “Interaction of mitochondrial fission factor with dynamin related protein 1 governs physiological mitochondrial function in vivo” (Scientific Reports, 2018).
Where no end group is shown, it is not given here.

System: Mff-Drp1 interaction
Test: Co-immunoprecipitation of recombinant Drp1 with Mff
Assay type: binding, human
Conditions: 1 µM P259, 2 hours at 4 °C, 200 ng Drp1, 200 ng adaptor, RIPA buffer; representative blot of two independent experiments
Description: Figure 1 Rational peptide design identifies a novel inhibitor of the Mff-Drp1 protein-protein interaction. (a) A scheme of the rationale behind the inhibitor design. […] Surface and ribbon diagrams of Drp1 structure (PDB, 4BEJ) with the GTPase, bundle signaling element (BSE), and stalk domains highlighted. (d) A heatmap representing sequence conservation of human proteins that contain a region similar to P259. Sequence conservation corresponds to the number of residues similar/identical to P259 from each sequence. […] The obtained graph is of the mean standardized response and ± s.e. as a function of time for n = 3 individual experiments, with 3 technical replicates each. […]
Protein binding to the surface was obtained through current measurements during a voltage sweep by a potentiostat. […] After calibration with 30 µL RIPA buffer for 3 minutes, […] of 100 nM protein was incubated over the surface for 3 minutes as sensor response w as measured. Disso ciation was measured by re-applying 30 µL of RIPA buffer. […]
The standardized response value was calculated by the following equation: […]
KD values were subsequently calculated using the binding and dissociation curves and the analysis software provided by the manufacturer (Nanomedical Diagnostics). […]
Protein content was measured using Bradford protein assay dye (Bio-Rad, CA, USA) and subsequently standardized. […]

YGRKKRRQRRRGSGIIQLPEIVVV-NH2 (C-terminus assumed) [P259]
Mff binding to co-immunoprecipitated recombinant Drp1: abolished Mff binding
